Measured values reported in PubChem BioAssay AID248 (DTP/NCI, 2004).
Several values for one entry are separate records, joined by “and”; a condition that tells them apart may be missing. Equal values may be shown once. Inconclusive results and toxic doses are left out. No stated cut-off is given here; in the data, active means T/C of 150% or more; inactive means T/C below 125%.

Test system: L1210 leukemia ip in BDF1 mice, survival T/C
Test: NCI In Vivo Anticancer Drug Screen. Data for tumor model L1210 Leukemia (intraperitoneal) in B6D2F1 (BDF1) mice
Details: endpoint: mean survival time, higher = longer survival
How it was run: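 Tumor was transplanted into mice, which were then dosed with test compound or vehicle alone. Survival was recorded for each group, and the treated figure was expressed relative to the control figure.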

[1] = dose: 100.0 mg/kg/injection, schedule: Q04DX003 (ip), vehicle: Klucel (hydroxypropylcellulose) (HPC)
[2] = dose: 200.0 mg/kg/injection, schedule: Q04DX003 (ip), vehicle: Klucel (hydroxypropylcellulose) (HPC)
[3] = dose: 400.0 mg/kg/injection, schedule: Q04DX003 (ip), vehicle: Klucel (hydroxypropylcellulose) (HPC)
[4] = dose: 100.0 mg/kg/injection, schedule: Q04DX002 (ip), vehicle: Klucel (hydroxypropylcellulose) (HPC)
[5] = dose: 200.0 mg/kg/injection, schedule: Q04DX002 (ip), vehicle: Klucel (hydroxypropylcellulose) (HPC)
[6] = dose: 400.0 mg/kg/injection, schedule: Q04DX002 (ip), vehicle: Klucel (hydroxypropylcellulose) (HPC)
[7] = dose: 50.0 mg/kg/injection, schedule: Q01DX001 (ip), vehicle: saline
[8] = dose: 100.0 mg/kg/injection, schedule: Q01DX001 (ip), vehicle: saline
[9] = dose: 200.0 mg/kg/injection, schedule: Q01DX001 (ip), vehicle: saline
[10] = dose: 400.0 mg/kg/injection, schedule: Q01DX001 (ip), vehicle: saline
[11] = dose: 50.0 mg/kg/injection, schedule: Q04DX002 (ip), vehicle: Klucel (hydroxypropylcellulose) (HPC)
[12] = dose: 100.0 mg/kg/injection, schedule: Q01DX001 (ip), vehicle: carboxymethylcellulose (CMC)
[13] = dose: 200.0 mg/kg/injection, schedule: Q01DX001 (ip), vehicle: carboxymethylcellulose (CMC)
[14] = dose: 400.0 mg/kg/injection, schedule: Q01DX001 (ip), vehicle: carboxymethylcellulose (CMC)
[15] = dose: 100.0 mg/kg/injection, schedule: Q01DX009 (ip), vehicle: saline
[16] = dose: 50.0 mg/kg/injection, schedule: Q01DX009 (ip), vehicle: saline with Tween-80
[17] = dose: 100.0 mg/kg/injection, schedule: Q01DX009 (ip), vehicle: Klucel (hydroxypropylcellulose) (HPC)
[18] = dose: 100.0 mg/kg/injection, schedule: Q04DX003 (ip), vehicle: saline
[19] = dose: 200.0 mg/kg/injection, schedule: Q01DX009 (ip), vehicle: Klucel (hydroxypropylcellulose) (HPC)
[20] = dose: 200.0 mg/kg/injection, schedule: Q04DX003 (ip), vehicle: saline
[21] = dose: 400.0 mg/kg/injection, schedule: Q01DX009 (ip), vehicle: Klucel (hydroxypropylcellulose) (HPC)

Measured: T/C

CCCCCCCCCCCCCCCCNS(=O)(=O)c1ccc(Br)cc1
inactive: dose: 100.0 mg/kg/injection, schedule: Q01DX001 (ip), vehicle: Klucel (hydroxypropylcellulose) (HPC) 96 % of control | [1] 91 % of control | dose: 200.0 mg/kg/injection, schedule: Q01DX001 (ip), vehicle: Klucel (hydroxypropylcellulose) (HPC) 93 % of control | [2] 95 % of control | dose: 400.0 mg/kg/injection, schedule: Q01DX001 (ip), vehicle: Klucel (hydroxypropylcellulose) (HPC) 96 % of control | [3] 103 % of control

Cc1cccc(NC(=O)c2cccc([N+](=O)[O-])c2C(=O)O)c1C
inactive: [4] 103 % of control | [5] 103 % of control | [6] 103 % of control

C=CC1CN2CCC1CC2C(=O)c1ccnc2ccccc12 (stereo unspecified)
inactive: [7] 101 % of control | [8] 104 % of control | [9] 106 % of control | [10] 98 % of control

C=CCOc1c(Br)cc(Br)cc1Br
inactive: dose: 12.5 mg/kg/injection, schedule: Q04DX002 (ip), vehicle: Klucel (hydroxypropylcellulose) (HPC) 96 % of control | dose: 25.0 mg/kg/injection, schedule: Q04DX002 (ip), vehicle: Klucel (hydroxypropylcellulose) (HPC) 100 % of control | [11] 86 % of control | [4] 95 % of control | [5] 89 % of control | [6] 95 % of control

O=C(O)c1csnn1
inactive: [8] 102 % of control | [9] 97 % of control | [10] 103 % of control

N=c1nc(N)c(N)c(N)n1O
inactive: [12] 94 % of control | [13] 97 % of control | [14] 97 % of control

O=c1[nH]c(=O)c2cccnc2[nH]1
inactive: dose: 3.12 mg/kg/injection, schedule: Q01DX009 (ip), vehicle: saline 109 % of control | dose: 6.25 mg/kg/injection, schedule: Q01DX009 (ip), vehicle: saline 107 % of control | dose: 12.5 mg/kg/injection, schedule: Q01DX009 (ip), vehicle: saline 115 % of control | dose: 25.0 mg/kg/injection, schedule: Q01DX001 (ip), vehicle: saline 100 % of control | dose: 25.0 mg/kg/injection, schedule: Q01DX009 (ip), vehicle: saline 108 % of control | [7] 105 % of control | dose: 50.0 mg/kg/injection, schedule: Q01DX009 (ip), vehicle: saline 100 % of control | [8] 98 % of control and 100 % of control | [15] 94 % of control | [9] 98 % of control and 100 % of control

Cc1cc(N(CCCCl)CCCCl)ccc1C=Nc1cc(Br)c(O)c(Br)c1
inactive: [1] 94 % of control | [2] 95 % of control | [3] 96 % of control

OC1CC[N-]CC1.OC1CC[N-]CC1.[Cl][Pt+2]([Cl])([Cl])[Cl]
inactive: dose: 12.5 mg/kg/injection, schedule: Q01DX009 (ip), vehicle: saline with Tween-80 100 % of control | dose: 25.0 mg/kg/injection, schedule: Q01DX009 (ip), vehicle: saline with Tween-80 103 % of control | dose: 25.0 mg/kg/injection, schedule: Q04DX003 (ip), vehicle: saline with Tween-80 100 % of control | [16] 92 % of control | dose: 50.0 mg/kg/injection, schedule: Q04DX003 (ip), vehicle: saline with Tween-80 107 % of control | dose: 100.0 mg/kg/injection, schedule: Q04DX003 (ip), vehicle: saline with Tween-80 112 % of control and 119 % of control

CCN(CC)CCOC(=O)Nc1ccc(Cl)cc1
inactive: [17] 93 % of control | [18] 98 % of control | [19] 93 % of control | [20] 98 % of control | [21] 98 % of control

NC(=S)N/N=C/c1c(Cl)n(-c2ccccc2)c2ccccc12
inactive: [11] 87 % of control | [4] 87 % of control | [5] 93 % of control

COc1ccc(C(c2ccc(OC)cc2)C(c2ccc(OC)cc2)c2ccc(OC)cc2)cc1
inactive: [4] 98 % of control | [5] 106 % of control | [6] 103 % of control

CC(=O)OC1CCC2(C)C(CCC3C2CCC2(C)C(c4ccc(=O)oc4)C(OC(C)=O)CC32O)C1 (stereo unspecified)
inactive: dose: 1.0 mg/kg/injection, schedule: Q01DX001 (sc), vehicle: steriod suspending solution 96 % of control | dose: 2.0 mg/kg/injection, schedule: Q01DX001 (sc), vehicle: steriod suspending solution 98 % of control | dose: 4.0 mg/kg/injection, schedule: Q01DX001 (sc), vehicle: steriod suspending solution 93 % of control | dose: 8.0 mg/kg/injection, schedule: Q01DX001 (sc), vehicle: steriod suspending solution 109 % of control | dose: 12.0 mg/kg/injection, schedule: Q01DX001 (sc), vehicle: steriod suspending solution 98 % of control | dose: 16.0 mg/kg/injection, schedule: Q01DX001 (sc), vehicle: steriod suspending solution 101 % of control | dose: 32.0 mg/kg/injection, schedule: Q01DX001 (sc), vehicle: steriod suspending solution 108 % of control | dose: 64.0 mg/kg/injection, schedule: Q01DX001 (sc), vehicle: steriod suspending solution 103 % of control | dose: 128.0 mg/kg/injection, schedule: Q01DX001 (sc), vehicle: steriod suspending solution 111 % of control

CC(C)C/C=N/NC(=O)Cc1ccccc1
inactive: dose: 100.0 mg/kg/injection, schedule: Q01DX001 (ip), vehicle: other 101 % of control | dose: 200.0 mg/kg/injection, schedule: Q01DX001 (ip), vehicle: other 94 % of control | dose: 400.0 mg/kg/injection, schedule: Q01DX001 (ip), vehicle: other 101 % of control

Cc1c(C#N)c2ccccc2c2ccccc12
inactive: [18] 103 % of control | [20] 103 % of control | dose: 400.0 mg/kg/injection, schedule: Q04DX003 (ip), vehicle: saline 95 % of control

COc1ccc(NC(=O)Oc2cc(C)c(Cl)cc2C(C)C)c(OC)c1
inactive: [17] 101 % of control | [19] 101 % of control | [21] 92 % of control

CN(C)C(=O)Sc1c(Cl)cc(Cl)cc1S(=O)(=O)F
inactive: [17] 97 % of control | [19] 100 % of control | [21] 97 % of control

CCCOC(=O)c1ccc(NCC(C)(C)[N+](=O)[O-])cc1
inactive: [15] 95 % of control | dose: 200.0 mg/kg/injection, schedule: Q01DX009 (ip), vehicle: saline 117 % of control | dose: 400.0 mg/kg/injection, schedule: Q01DX009 (ip), vehicle: saline 91 % of control

Cn1c(/N=C/c2ccc([N+](=O)[O-])cc2)c(N)c(=O)n(C)c1=O
inactive: dose: 50.0 mg/kg/injection, schedule: Q01DX001 (ip), vehicle: carboxymethylcellulose (CMC) 90 % of control | [12] 93 % of control | [13] 88 % of control | [14] 88 % of control

O=C1CN(CCN2CC(=O)N(c3ccccc3)C2=S)C(=S)N1Cc1ccccc1
inactive: [16] 96 % of control | dose: 100.0 mg/kg/injection, schedule: Q01DX009 (ip), vehicle: saline with Tween-80 90 % of control | dose: 200.0 mg/kg/injection, schedule: Q01DX009 (ip), vehicle: saline with Tween-80 94 % of control
